In patent publication US20120202794A1 (priority 2011, published 2012):

How the values were obtained:
[1] = test system: Huh7, HepG2, BxPC3, or CEM cells; test: Cell cytotoxicity assay (MTS), CC90 as reported in Table 1, cell line not stated; assay type: cell-based; details: MTS assay; 8 days incubation; cell line not given
Outline: (§1)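 MTS read-out (490 nm, 2 h dye step) after 8-day exposure at 37° C. Huh7, HepG2, BxPC3 were seeded at 2×10^3 and CEM at 5×10^3 cells/well, with compound serially diluted from 100 μM. CC90 comes from comparison with untreated control wells.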

HCV Replicon 1b = test: HCV inhibition assay, HCV replicon 1b (Clone A or ET-lunet cells; RT-PCR or luciferase reporter); assay type: cell-based; details: Hepatitis C virus, 96 h, HCV replicon 1b; 4 days incubation; read-out: Replicon 1b potency EC90
Outline: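 Inhibition read either as luciferase signal (ET replicon) or as HCV 5′-NTR RNA by RT-PCR relative to rRNA, % = (1−2^−ΔΔCt)×100, against DMSO controls, giving EC50 and EC90. Cells: Clone A or ET-lunet, seeded 1500 or 3000/well, exposed 4 days at 37 °C, 5% CO2, 0.5% DMSO.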

[2] = test system: genotype (GT) 1a H77 replicon; test: Replicon assay, H77 GT 1a replicon in Huh7-Lunet cells (RT-PCR); assay type: cell-based, HCV; details: Hepatitis C virus, GT1A, Huh-7, 96 h, 4 days incubation, read-out: RT-PCR H77 1a Potency EC90
Procedure: Cell Line and Maintenance: The genotype (GT) 1a H77 replicon (Apath LLC Brooklyn, N.Y.) was stably expressed in Huh7-Lunet cells (kindly provided by R. Bartenschlager University of Heidelberg, Heidelberg, Germany) and maintained in Dulbecco's modified Eagle's medium supplemented with 10% fetal bovine serum, 0.1 mM non essential amino acids (NEAA), 4 mM L-glutamine, 1 mM sodium pyruvate and 0.750 mg/mL G418 (Geneticin) (Invitrogen, Carlsbad, Calif.).
Replicon Assay: Inhibition of HCV in the H77 GT 1a replicon (Apath LLC, Brooklyn, N.Y.) was measured by Real-Time PCR (RT-PCR) Replicon cells were added to the plate at 1500 cells/well in 50 μL of medium and 50 μL of 2× drug dilutions were added (in duplicate) per well in a 96 well plate to total 100 μL per well. The plate was incubated at 37° C. in a humidified 8% CO2 atmosphere for 4 days. After incubation, the supernatant was discarded and total RNA was extracted with RNeasy 96 (Qiagen, Valencia Calif.) per manufacturer's instructions. The extracted RNA was amplified as described by Stuyver et al., J. Virol. (2003) 77: 10689-10694, and the ΔCt values for HCV were determined and the EC90 was calculated using GraphPad Prism software (San Diego, Calif.). A “no drug” (medium only) control was used to determine maximum amount of HCV RNA.

[3] = Cell cytotoxicity assay (MTS), CC90 as reported in Table 1, cell line not stated; assay type: cell-based; details: human; MTS assay; 8 days incubation; cell line not given
Outline: as §1

Row | SMILES | CC90 [1] [nM] | EC90 (HCV Replicon 1b) [nM] | EC90 [2] [nM] | CC90 at 8 days [3] [nM]
1 | CC(C)C[C@H]1CN(C(=O)c2cc(-c3ccc([N+](=O)[O-])cc3)on2)[C@@H](CC(C)C)C(=O)N1 [Compound 273, (3S,6S)-3,6-diisobutyl-4-(5-(4-nitrophenyl)isoxazole-3-carbonyl)piperazin-2-one] | > 10000 | 3760 |  | 
2 | CC(C)C[C@H]1CN(C(=O)[C@@H]2C[C@H]2c2ccc(F)cc2F)[C@@H](CC(C)C)C(=O)N1 [Compound 298, (3S,6S)-4-[(1R,2R)-2-(2,4-fluoro-phenyl)-cyclopropanecarbonyl]-3,6-diisobutyl-piperazin-2-one] | > 10000 | 230 |  | 
3 | CC(C)C[C@H]1C(=O)N[C@@H](c2ccccc2)CN1C(=O)[C@@H]1C[C@H]1c1ccc(Cl)cc1 [Compound 301, (3S,6S)-4-((1R,2R)-2-(4-chlorophenyl)cyclopropanecarbonyl)-3-isobutyl-6-phenyl-piperazin-2-one] | > 10000 | 170 |  | 
4 | CC(C)C[C@H]1C(=O)N[C@@H](c2cccs2)CN1C(=O)c1cc(-c2ccc(F)cc2)no1 [Compound 432, (3S,6R)-4-(3-(4-fluorophenyl)isoxazole-5-carbonyl)-3-isobutyl-6-(thiophen-2-yl)piperazin-2-one] |  | 20 | 22 | > 10000
5 | CC(C)C[C@H]1C(=O)N[C@@H](c2cccs2)CN1C(=O)[C@@H]1C[C@H]1c1ccc(F)cc1 [Compound 433, (3S,6R)-4-((1R,2R)-2-(4-fluorophenyl)cyclopropanecarbonyl)-3-isobutyl-6-(thiophen-2-yl)piperazin-2-one] |  | 18 | 30 | > 10000
6 | CC(C)C[C@H]1C(=O)N[C@@H](c2ccsc2)CN1C(=O)c1cc(-c2ccc(F)cc2)on1 [Compound 436, (3S,6S)-4-(5-(4-fluorophenyl)isoxazole-3-carbonyl)-3-isobutyl-6-(thiophen-3-yl)piperazin-2-one] |  | 18 | 38 | > 10000
7 | CC(C)C[C@H]1C(=O)N[C@@H](c2ccsc2)CN1C(=O)[C@@H]1C[C@H]1c1ccc(F)cc1 [Compound 445, (3S,6S)-4-((1R,2R)-2-(4-fluorophenyl)cyclopropanecarbonyl)-3-isobutyl-6-(thiophen-3-yl)piperazin-2-one] |  | 27 | 20 | > 10000
8 | CC(C)C[C@H]1C(=O)N[C@@H](c2ccsc2)CN1C(=O)c1noc(-c2ccc(F)cc2)n1 [Compound 446, (3S,6S)-4-(5-(4-fluorophenyl)-1,2,4-oxadiazole-3-carbonyl)-3-isobutyl-6-(thiophen-3-yl)piperazin-2-one] |  | 14 | 28 | > 10000
9 | CC(C)C[C@H]1C(=O)N[C@@H](c2ccsc2Cl)CN1C(=O)c1cc(-c2ccc(F)cc2)on1 [Compound 496, (3S,6S)-6-(2-chlorothiophen-3-yl)-4-(5-(4-fluorophenyl)isoxazole-3-carbonyl)-3-isobutylpiperazin-2-one] |  | 11 | 65 | > 10000
10 | CC(C)C[C@H]1C(=O)N[C@@H](c2ccsc2Cl)CN1C(=O)c1noc(-c2ccc(F)cc2)n1 [Compound 499, (3S,6S)-6-(2-chlorothiophen-3-yl)-4-(5-(4-fluorophenyl)-1,2,4-oxadiazole-3-carbonyl)-3-isobutylpiperazin-2-one] |  | 23 | 83 | > 10000
11 | CC(C)C[C@H]1C(=O)N[C@@H](c2cnco2)CN1C(=O)[C@@H]1C[C@H]1c1ccc(F)cc1 [Compound 521, (3S,6R)-4-((1R,2R)-2-(4-fluorophenyl)cyclopropanecarbonyl)-3-isobutyl-6-(oxazol-5-yl)piperazin-2-one] |  | 22 | 4 | > 10000
